Experimental data: PMC12752563, “Caffeic Acid Acts as a Potent Senomorphic and Alleviates Inflammation and Lung Fibrosis by Covalently Targeting Annexin A5 Protein in Mice” (Exploration, 2025)

Assays:
Annexin A5 (ANXA5) [1] = target: T1, Annexin A5 (ANXA5) (Homo sapiens, UniProt P08758); test: in-gel fluorescence after click chemistry; type: binding; details: covalent; 12% SDS-PAGE
T1 construct: recombinant protein purified from E. coli; His-tag labelled for MST
T1 sequence (P08758 2-320): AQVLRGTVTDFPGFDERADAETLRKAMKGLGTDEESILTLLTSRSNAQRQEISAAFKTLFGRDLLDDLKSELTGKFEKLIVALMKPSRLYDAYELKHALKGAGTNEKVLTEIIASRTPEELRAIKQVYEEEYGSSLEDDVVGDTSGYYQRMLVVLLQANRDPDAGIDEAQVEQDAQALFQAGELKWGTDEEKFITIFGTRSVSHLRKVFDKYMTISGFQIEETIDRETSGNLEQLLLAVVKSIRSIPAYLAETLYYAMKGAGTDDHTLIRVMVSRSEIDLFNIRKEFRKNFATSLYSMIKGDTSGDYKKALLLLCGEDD

Annexin A5 (ANXA5) [2] = target: T1, Annexin A5 (ANXA5); test: microscale thermophoresis; type: binding

Row | Kd (Annexin A5 (ANXA5) [2]) [µM] | Structure (SMILES) | in-gel fluorescence after click chemistry (Annexin A5 (ANXA5) [1])
1 |  | C#CCNC(=O)/C=C/c1ccc(O)c(O)c1 [CA probe] | wild‐type ANXA5 could be labeled by CA‐probe
2 | 3.68 | O=C(O)/C=C/c1ccc(O)c(O)c1 [CA, caffeic acid] | 
